Assay results taken from ChEMBL document CHEMBL4420062, “Tfpi inhibitors and methods of use” (2013).

Experiment: Stability in human plasma assessed as parent compound remaining after 24 hrs
Assay type: ADME, cell-free
Settings: read-out: Stability

| Compound | remaining at 24 h [%] |
| --- | --- |
| CCN1C(=O)CC(SC[C@H](NC(=O)[C@H](CC(C)C)NC(=O)[C@H](CCCCN)NC(=O)[C@H](C)NC(=O)C(C)(C)NC(=O)[C@H](CC(C)C)NC(=O)[C@H](CCCNC(=N)N)NC(=O)[C@H](CCC(=O)O)NC(=O)[C@H](Cc2ccccc2)NC(=O)[C@H](Cc2ccc(O)cc2)NC(=O)CNC(=O)[C@H](Cc2cnc[nH]2)NC(=O)[C@@H](NC(=O)[C@H](Cc2cnc[nH]2)NC(=O)[C@@H](NC(=O)[C@H](CC(N)=O)NC(=O)[C@H]2CCCN2C(=O)[C@H](CCCCN)NC(=O)[C@H](CO)NC(=O)[C@H](CCC(N)=O)NC(=O)[C@H](Cc2ccccc2)NC(C)=O)C(C)C)C(C)C)C(N)=O)C1=O (stereo partly specified) | 18.6 |
| CCN1C(=O)CC(SC[C@H](NC(=O)[C@H](CC(C)C)NC(=O)[C@H](CCCCN)NC(=O)[C@H](C)NC(=O)C(C)(C)NC(=O)[C@H](CC(C)C)NC(=O)[C@H](CCCNC(=N)N)NC(=O)[C@H](CCC(=O)O)NC(=O)[C@H](Cc2ccccc2)NC(=O)[C@H](Cc2ccc(O)cc2)NC(=O)CNC(=O)[C@H](CC(=O)O)NC(=O)[C@@H](NC(=O)[C@H](Cc2cnc[nH]2)NC(=O)[C@@H](NC(=O)[C@H](CC(N)=O)NC(=O)[C@H]2CCCN2C(=O)[C@H](CCCCN)NC(=O)[C@H](CO)NC(=O)[C@H](CCC(N)=O)NC(=O)[C@H](Cc2ccccc2)NC(C)=O)C(C)C)C(C)(C)C)C(N)=O)C1=O (stereo partly specified) | 52 |
| CC(=O)N[C@@H](Cc1ccccc1)C(=O)N[C@@H](CCC(N)=O)C(=O)N[C@@H](CO)C(=O)N[C@@H](CCCCN)C(=O)N1CCC[C@@H]1C(=O)N[C@@H](CC(N)=O)C(=O)N[C@H](C(=O)N[C@@H](Cc1cnc[nH]1)C(=O)N[C@H](C(=O)N1CCC[C@H]1C(=O)NCC(=O)N[C@@H](Cc1ccc(O)cc1)C(=O)N[C@@H](Cc1ccccc1)C(=O)N[C@@H](CCC(=O)O)C(=O)N[C@@H](CCCNC(=N)N)C(=O)N[C@@H](CC(C)C)C(=O)NC(C)(C)C(=O)N[C@@H](C)C(=O)N[C@@H](CCCCN)C(=O)N[C@@H](CC(C)C)C(N)=O)C(C)C)C(C)C | 76.3 |
| CC(C)C[C@H](NC(=O)[C@H](CCCCN)NC(=O)[C@H](C)NC(=O)C(C)(C)NC(=O)[C@H](CC(C)C)NC(=O)[C@H](CCCNC(=N)N)NC(=O)[C@H](CCC(=O)O)NC(=O)[C@H](Cc1ccccc1)NC(=O)[C@H](Cc1ccc(O)cc1)NC(=O)[C@@H](C)NC(=O)[C@H](CC(=O)O)NC(=O)[C@@H](NC(=O)[C@H](Cc1cnc[nH]1)NC(=O)[C@@H](NC(=O)[C@H](CC(N)=O)NC(=O)[C@H]1CCCN1C(=O)[C@H](CCCCN)NC(=O)[C@H](CO)NC(=O)[C@H](CCC(N)=O)NC(=O)[C@H](Cc1ccccc1)NS(=O)(=O)c1ccc2ccccc2c1)C(C)C)C(C)(C)C)C(N)=O | 105 |
| CC(=O)N[C@@H](Cc1ccccc1)C(=O)N[C@@H](CCC(N)=O)C(=O)N[C@@H](CO)C(=O)N[C@@H](CCCCN)C(=O)N(CCCN)CC(=O)N[C@@H](CC(N)=O)C(=O)N[C@H](C(=O)N[C@@H](Cc1cnc[nH]1)C(=O)N[C@H](C(=O)N[C@@H](CC(=O)O)C(=O)NCC(=O)N[C@@H](Cc1ccc(O)cc1)C(=O)N[C@@H](Cc1ccccc1)C(=O)N[C@@H](CCC(=O)O)C(=O)N[C@@H](CCCNC(=N)N)C(=O)N[C@@H](CC(C)C)C(=O)NC(C)(C)C(=O)N[C@@H](C)C(=O)N[C@@H](CCCCN)C(=O)N[C@@H](CC(C)C)C(N)=O)C(C)C)C(C)C | 46.7 |
| CC(=O)N[C@@H](Cc1ccccc1)C(=O)N[C@@H](CCC(N)=O)C(=O)N[C@@H](CO)C(=O)N[C@@H](CCCCN)C(=O)N1CCC[C@@H]1C(=O)N[C@@H](CCCNC(=N)N)C(=O)N[C@H](C(=O)N[C@@H](Cc1cnc[nH]1)C(=O)N[C@H](C(=O)N[C@@H](CC(=O)O)C(=O)NCC(=O)N[C@@H](Cc1ccc(O)cc1)C(=O)N[C@@H](Cc1ccccc1)C(=O)N[C@@H](CCC(=O)O)C(=O)N[C@@H](CCCNC(=N)N)C(=O)N[C@@H](CC(C)C)C(=O)NC(C)(C)C(=O)N[C@@H](C)C(=O)N[C@@H](CCCCN)C(=O)N[C@@H](CC(C)C)C(N)=O)C(C)(C)C)C(C)C | 66.1 |
| CCN1C(=O)CC(SC[C@H](NC(=O)[C@H](CC(C)C)NC(=O)[C@H](CCCCN)NC(=O)[C@H](C)NC(=O)C(C)(C)NC(=O)[C@H](CC(C)C)NC(=O)[C@H](CCCNC(=N)N)NC(=O)[C@H](CCC(=O)O)NC(=O)[C@H](Cc2ccccc2)NC(=O)[C@H](Cc2ccc(O)cc2)NC(=O)CNC(=O)[C@@H](NC(=O)[C@@H](NC(=O)[C@H](Cc2cnc[nH]2)NC(=O)[C@@H](NC(=O)[C@H](CC(N)=O)NC(=O)[C@H]2CCCN2C(=O)[C@H](CCCCN)NC(=O)[C@H](CO)NC(=O)[C@H](CCC(N)=O)NC(=O)[C@H](Cc2ccccc2)NC(C)=O)C(C)C)C(C)(C)C)[C@@H](C)O)C(N)=O)C1=O (stereo partly specified) | 52.6 |
| CC(=O)N[C@@H](Cc1ccccc1)C(=O)N[C@@H](CCC(N)=O)C(=O)N[C@@H](CO)C(=O)N[C@@H](CCCCN)C(=O)N1CCC[C@@H]1C(=O)N[C@@H](CC(N)=O)C(=O)N[C@H](C(=O)N[C@@H](Cc1cnc[nH]1)C(=O)N[C@H](C(=O)N[C@@H](CC(=O)O)C(=O)N[C@@H]1CSSC[C@@H](C(=O)N[C@@H](CCCNC(=N)N)C(=O)N[C@@H](CC(C)C)C(=O)N[C@@H](C)C(=O)N[C@@H](C)C(=O)N[C@@H](CCCCN)C(=O)N[C@@H](CC(C)C)C(N)=O)NC(=O)[C@H](Cc2ccccc2)NC(=O)[C@H](Cc2ccc(O)cc2)NC1=O)C(C)(C)C)C(C)C | 49.3 |
| CC(=O)N[C@@H](Cc1ccccc1)C(=O)N[C@@H](CCC(N)=O)C(=O)N[C@@H](CO)C(=O)N[C@@H](CCCCN)C(=O)N1CCC[C@@H]1C(=O)N[C@@H](CC(N)=O)C(=O)N[C@H](C(=O)N[C@@H](Cc1cnc[nH]1)C(=O)N[C@H](C(=O)N1CCC[C@H]1C(=O)N[C@@H]1CSSCC[C@@H](C(=O)N[C@@H](CCCNC(=N)N)C(=O)N[C@@H](CC(C)C)C(=O)NC(C)(C)C(=O)N[C@@H](C)C(=O)N[C@@H](CCCCN)C(=O)N[C@@H](CC(C)C)C(N)=O)NC(=O)[C@H](Cc2ccccc2)NC(=O)[C@H](Cc2ccc(O)cc2)NC1=O)C(C)C)C(C)C | 40.7 |
| CCN1C(=O)CC(SC[C@H](NC(=O)[C@H](CC(C)C)NC(=O)[C@H](CCCCN)NC(=O)[C@H](C)NC(=O)C(C)(C)NC(=O)[C@H](CC(C)C)NC(=O)[C@H](CCCNC(=N)N)NC(=O)[C@H](CCC(=O)O)NC(=O)[C@H](Cc2ccccc2)NC(=O)[C@H](Cc2ccc(O)cc2)NC(=O)CNC(=O)[C@H](CO)NC(=O)[C@@H](NC(=O)[C@H](Cc2cnc[nH]2)NC(=O)[C@@H](NC(=O)[C@H](CC(N)=O)NC(=O)[C@H]2CCCN2C(=O)[C@H](CCCCN)NC(=O)[C@H](CO)NC(=O)[C@H](CCC(N)=O)NC(=O)[C@H](Cc2ccccc2)NC(C)=O)C(C)C)C(C)C)C(N)=O)C1=O (stereo partly specified) | 33.4 |
| CC(C)C[C@H](NC(=O)[C@H](CCCCN)NC(=O)[C@H](C)NC(=O)C(C)(C)NC(=O)[C@H](CC(C)C)NC(=O)[C@H](CCCNC(=N)N)NC(=O)[C@H](CCC(=O)O)NC(=O)[C@H](Cc1ccccc1)NC(=O)[C@H](Cc1ccc(O)cc1)NC(=O)[C@@H](C)NC(=O)[C@H](CC(=O)O)NC(=O)[C@@H](NC(=O)[C@H](Cc1cnc[nH]1)NC(=O)[C@@H](NC(=O)[C@H](CC(N)=O)NC(=O)[C@H]1CCCN1C(=O)[C@H](CCCCN)NC(=O)[C@H](CO)NC(=O)[C@H](CCC(N)=O)NC(=O)[C@H](Cc1ccccc1)NC(=O)Cc1ccc2ccccc2c1)C(C)C)C(C)(C)C)C(N)=O | 108 |
| CC(C)C[C@@H]1NC(=O)[C@H](CCCCN)NC(=O)[C@H](C)NC(=O)C(C)(C)NC(=O)[C@H](CC(C)C)NC(=O)[C@H](CCCNC(=N)N)NC(=O)[C@H](CCC(=O)O)NC(=O)[C@H](Cc2ccccc2)NC(=O)[C@H](Cc2ccc(O)cc2)NC(=O)CNC(=O)[C@H](CC(=O)O)NC(=O)[C@H](C(C)C)NC(=O)[C@H](Cc2cnc[nH]2)NC(=O)[C@H](C(C)C)NC(=O)[C@H](CC(N)=O)NC(=O)[C@H]2CCCN2C(=O)[C@H](CCCCN)NC(=O)[C@H](CO)NC(=O)[C@H](CCC(N)=O)NC(=O)[C@H](Cc2ccccc2)NC(=O)CCOCCOCCOCCOCCNC1=O | 55.9 |
| CC(=O)N[C@@H](Cc1ccccc1)C(=O)N[C@@H](CCC(N)=O)C(=O)N[C@@H](CO)C(=O)N[C@@H](CCCCN)C(=O)N1CCC[C@@H]1C(=O)N[C@@H](CC(N)=O)C(=O)N[C@H](C(=O)N[C@@H](Cc1cnc[nH]1)C(=O)N[C@H](C(=O)N[C@@H](CC(=O)O)C(=O)N[C@H](C)C(=O)N[C@@H](Cc1ccc(O)cc1)C(=O)N[C@@H](Cc1ccccc1)C(=O)N[C@@H](CCC(=O)O)C(=O)N[C@@H](CCCNC(=N)N)C(=O)N[C@@H](CC(C)C)C(=O)NC(C)(C)C(=O)N[C@H]1CSSCCNC(=O)[C@H](CC(C)C)NC(=O)[C@H](CCCCN)NC1=O)C(C)(C)C)C(C)C | 16 |
| CCCCCC(=O)N[C@@H](Cc1ccccc1)C(=O)N[C@@H](CCC(N)=O)C(=O)N[C@@H](CO)C(=O)N[C@@H](CCCCN)C(=O)N1CCC[C@@H]1C(=O)N[C@@H](CSCNC(C)=O)C(=O)N[C@H](C(=O)N[C@@H](Cc1cnc[nH]1)C(=O)N[C@H](C(=O)N[C@@H](CC(=O)O)C(=O)N[C@H](C)C(=O)N[C@@H](Cc1ccc(O)cc1)C(=O)N[C@@H](Cc1ccccc1)C(=O)N[C@@H](CCC(=O)O)C(=O)N[C@@H](CCCNC(=N)N)C(=O)N[C@@H](CC(C)C)C(=O)NC(C)(C)C(=O)N[C@@H](C)C(=O)N[C@@H](CCCCN)C(=O)N[C@@H](CC(C)C)C(=O)N[C@@H](CSC1CC(=O)N(CC)C1=O)C(=O)O)C(C)(C)C)C(C)C (stereo partly specified) | 107 |
| CCN1C(=O)CC(SC[C@H](NC(=O)[C@H](CC(C)C)NC(=O)[C@H](CCCCN)NC(=O)[C@H](C)NC(=O)C(C)(C)NC(=O)[C@H](CC(C)C)NC(=O)[C@H](CCCNC(=N)N)NC(=O)[C@H](CCC(=O)O)NC(=O)[C@H](Cc2ccccc2)NC(=O)[C@H](Cc2ccc(O)cc2)NC(=O)[C@H](C)NC(=O)[C@H](CC(=O)O)NC(=O)[C@@H](NC(=O)[C@H](Cc2cnc[nH]2)NC(=O)[C@@H](NC(=O)[C@H](CC(N)=O)NC(=O)[C@H]2CCCN2C(=O)[C@H](CCCCN)NC(=O)[C@H](CO)NC(=O)[C@H](CCC(N)=O)NC(=O)[C@H](Cc2ccccc2)NC(C)=O)C(C)C)C(C)C)C(N)=O)C1=O (stereo partly specified) | 17.9 |
| CCN1C(=O)CC(SC[C@H](NC(=O)[C@H](CC(C)C)NC(=O)[C@H](CCCCN)NC(=O)[C@H](C)NC(=O)C(C)(C)NC(=O)[C@H](CC(C)C)NC(=O)[C@H](CCCNC(=N)N)NC(=O)[C@H](CCC(=O)O)NC(=O)[C@H](Cc2ccccc2)NC(=O)[C@H](Cc2ccc(O)cc2)NC(=O)CNC(=O)[C@H](CC(=O)O)N(C)C(=O)[C@@H](NC(=O)[C@H](Cc2cnc[nH]2)NC(=O)[C@@H](NC(=O)[C@H](CC(N)=O)NC(=O)[C@H]2CCCN2C(=O)[C@H](CCCCN)NC(=O)[C@H](CO)NC(=O)[C@H](CCC(N)=O)NC(=O)[C@H](Cc2ccccc2)NC(C)=O)C(C)C)C(C)C)C(N)=O)C1=O (stereo partly specified) | 46.5 |
